Test results from patent US7803831B2, “3-(2-hydroxy-phenyl)-1H-pyrazole-4-carboxylic acid amide derivatives as HSP90 inhibitors for the treatment of cancer” (Vernalis (Cambridge) Limited, priority 2002, dated 2010).

Test system: not listed separately
Assay: Sulforhodamine B (SRB) growth inhibition / cytotoxicity assay
Assay type: cell-based
Conditions: SRB growth arrest assay; cell line not stated
Protocol: A growth inhibition assay was also employed for the evaluation of candidate HSP90 inhibitors:
• 1) Determine cell number by haemocytometer. • 2) Using an 8 channel multipipettor, add 160 μl of the cell suspension (3600 cells/well or 2×10^4 cells/ml) to each well of a 96-well microtitre plate. • 3) Incubate overnight at 37° C. in a CO2 incubator. Day 2 • 4) Stock solutions of drugs are prepared, and serial dilutions of each drug are performed in medium to give final concentrations in wells. • 5) Using a multipipettor, 40 μl of drug (at 5× final concentration) is added to quadruplicate wells. • 6) Control wells are at either side of the 96 well plates, where 40 μl of medium is added. • 7) Incubate plates in CO2 incubator for 4 days (48 hours). Day 6 • 8) Tip off medium into sink and immerse plate slowly into 10% ice cold trichloroacetic acid (TCA). […] Leave for 15 mins. • 12) Wash off unbound SRB stain with four washes of 1% acetic acid. • 13) Dry plates in incubator. • 14) Solubilise SRB using 100 μl of 10 mM Tris base and put plates on plate shaker for 5 mins. • 15) Determine absorbance at 540 nm using a plate reader. Calculate mean absorbance for quadruplicate wells and express as a percentage of value for control, untreated wells. • 16) Plot % absorbance values versus log drug concentration and determine the IC50.

| SMILES | IC50 |
| --- | --- |
| CC(=O)c1ccc(NC(=O)c2c[nH]nc2-c2cc(Cl)c(O)cc2O)cc1 [Example 1, 3-(5-chloro-2,4-dihydroxy-phenyl)-1H-pyrazole-4-carboxylic acid (4-acetyl-phenyl)-amide] | > 50 µM |

Target: T1, yeast HSP90 (Saccharomyces cerevisiae, UniProt P02829)
T1 construct: made in house; host or cells: E. coli
Assay: Malachite green ATPase assay
Assay type: biochemical
Conditions: activity range
Source text: The intrinsic ATPase activity of HSP90 may be measured using yeast HSP90 as a model system. The assay, based on the use of malachite green for the measurement of inorganic phosphate, was used to test the HSP90 inhibitory activity of the compounds of the Examples herein.
Malachite Green ATPase Assay
Chemicals are of the highest purity commercially available and all aqueous solutions are made up in AR water. Because of the need to minimise contamination with inorganic phosphate, precautions should be taken with solutions and apparatus used in the assays. Glassware and pH meters are rinsed with double distilled or deionised water before use and, wherever possible, plastic ware should be used. Gloves are worn for all procedures. • (1) Greiner 384-well (Greiner 781101) or Costar 384-well flat-bottomed polystyrene multiwell plates (VWR). • (2) Assay buffer of (a) 100 mM Tris-HCl, pH 7.4, (b) 150 mM KCI, (c) 6 mM MgCl2. Stored at room temperature. • (3) 0.0812% (w/v) malachite green (M 9636, Sigma Aldrich Ltd., Poole, UK). Stored at room temperature. • (4) 2.32% (w/v) polyvinyl alcohol USP (P 1097, Sigma Aldrich Ltd, Poole, UK) in boiling water (see Comment 1), allowed to cool, and stored at room temperature. • (5) 5.72% (w/v) ammonium molybdate in 6 M hydrochloric acid. Stored at room temperature. • (6) 34% (w/v) sodium citrate. Stored at room temperature. • (7) 100 mM ATP, disodium salt, special quality (47699, Sigma Aldrich). Stored at −20° C. • (8) E. coli expressed yeast HSP90 protein, purified >95% (see, e.g., Panaretou et al., 1998) and stored in 50 uL aliquots at −80° C. Method • 1. Dilute test compounds to 500 μM in AR water (DMSO concentration will be 2.5%). Transfer 2.5 μl of these compounds directly from the daughter plate to the assay plate, giving a final assay concentration of 100 μM. To obtain 12 point IC50 values, perform serial dilutions 1:2 to produce a range of assay concentrations from 100 μM to 97.6 nM (2.5% DMSO), and transfer 2.5 μl of each concentration into the assay plate. Column 1 in the assay plate contains no compound, as a negative control. An additional row with no compound is also used as a background. • 2. Prepare ATP by diluting 100 mM stock to 925 μM with assay buffer, and aliquot 5 μl of diluted ATP to each well including controls (final assay concentration 370 μM). • 3. Add 5 μl of buffer to background row. • 4. Dilute enzyme preparation to 1.05 μM with assay buffer, and aliquot 5 μl into each compound well and to the negative control column. • 5. Collect the reagents to the bottom of the well, cover plate with plate seal and incubate overnight at 37 degC. • 6. First thing in the morning prepare the Malachite Green Reagent. Add 2 parts of Malachite Green Solution, 1 part of Polyvinyl Alcohol Solution, 1 part of Ammonium Molybdate Solution, and 2 parts of AR water. • 7. Invert to mix, and leave for approximately 1 hour until the colour turns from brown to golden yellow. • 8. Add 40 μl of Malachite Green Reagent to each well, allow 5 mins for colour to develop. • 9. Add 5 μl of Sodium Citrate Reagent to each well (see comment 2) • 10. Re-cover with plate seal and shake on plate shaker for at least 15 mins. • 11. Measure Absorbance at 620 nm using a suitable plate reader (e.g. Victor, Perkin Elmer Life Sciences, Milton Keynes, UK). […] Comments • (1) The polyvinyl alcohol dissolves in boiling water with difficulty and stirring for 2-3 h is required. • (2) The time interval between addition of the malachite green reagent and the sodium citrate should be kept as short as possible in order to reduce the non-enzymatic hydrolysis of ATP. Once the sodium citrate is added, the colour is stable for up to 4 h at room temperature. • (3) Compounds can be added to the assay plates using a Biomek FX Robot (Beckman Coulter).

T1 sequence (P02829 whole entry, looked up): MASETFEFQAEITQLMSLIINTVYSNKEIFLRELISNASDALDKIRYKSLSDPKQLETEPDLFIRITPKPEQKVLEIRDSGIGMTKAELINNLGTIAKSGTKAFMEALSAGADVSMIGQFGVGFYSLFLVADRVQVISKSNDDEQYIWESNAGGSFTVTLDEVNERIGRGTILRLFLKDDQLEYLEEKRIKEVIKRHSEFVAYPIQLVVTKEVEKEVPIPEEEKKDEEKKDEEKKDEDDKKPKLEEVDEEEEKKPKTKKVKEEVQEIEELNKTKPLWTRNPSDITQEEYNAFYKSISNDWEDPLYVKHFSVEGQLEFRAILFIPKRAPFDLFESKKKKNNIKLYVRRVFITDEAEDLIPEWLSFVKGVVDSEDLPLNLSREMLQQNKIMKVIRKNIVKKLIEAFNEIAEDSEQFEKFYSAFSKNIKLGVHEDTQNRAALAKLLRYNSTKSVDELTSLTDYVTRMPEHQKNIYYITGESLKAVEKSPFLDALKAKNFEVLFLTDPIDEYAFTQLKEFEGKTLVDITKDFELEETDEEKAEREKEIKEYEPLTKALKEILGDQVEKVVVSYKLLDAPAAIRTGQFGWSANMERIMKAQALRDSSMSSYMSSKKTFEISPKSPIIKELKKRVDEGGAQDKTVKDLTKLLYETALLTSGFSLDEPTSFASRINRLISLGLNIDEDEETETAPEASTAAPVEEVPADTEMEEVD

| SMILES | IC50 |
| --- | --- |
| O=C(Nc1ccccc1)c1c[nH]nc1-c1cc(Cl)c(O)cc1O [Example 2] | > 50 µM |
| O=C(c1c[nH]nc1-c1cc(Cl)c(O)cc1O)N1CCN(c2ccccc2)CC1 [Example 3] | > 50 µM |
| C=CCNC(=O)c1c[nH]nc1-c1cc(Cl)c(O)cc1O [Example 4] | > 50 µM |
| O=C(c1c[nH]nc1-c1cc(Cl)c(O)cc1O)N1CCOCC1 [Example 5] | > 50 µM |
| CN1CCN(C(=O)c2c[nH]nc2-c2cc(Cl)c(O)cc2O)CC1 [Example 6] | > 50 µM |
| O=C(NCCCN1CCOCC1)c1c[nH]nc1-c1cc(Cl)c(O)cc1O [Example 7] | > 50 µM |
| O=C(Nc1ccccn1)c1c[nH]nc1-c1cc(Cl)c(O)cc1O [Example 8] | > 50 µM |
| O=C(NCc1ccco1)c1c[nH]nc1-c1cc(Cl)c(O)cc1O [Example 9] | < 50 µM |
| O=C(NCCc1cccs1)c1c[nH]nc1-c1cc(Cl)c(O)cc1O [Example 10] | < 50 µM |
| O=C(NCCN1CCOCC1)c1c[nH]nc1-c1cc(Cl)c(O)cc1O [Example 11] | > 50 µM |
| O=C(NCCCO)c1c[nH]nc1-c1cc(Cl)c(O)cc1O [Example 12] | > 50 µM |
| O=C(Nc1ccc(O)cc1)c1c[nH]nc1-c1cc(Cl)c(O)cc1O [Example 13] | < 50 µM |
| COc1cccc(NC(=O)c2c[nH]nc2-c2cc(Cl)c(O)cc2O)c1 [Example 14] | < 50 µM |
| O=C(Nc1ccc2c(c1)OCCO2)c1c[nH]nc1-c1cc(Cl)c(O)cc1O [Example 15] | < 50 µM |
| O=C(Nc1ccc(O)c(O)c1)c1c[nH]nc1-c1cc(Cl)c(O)cc1O [Example 16] | > 50 µM |
| COc1ccc(NC(=O)c2c[nH]nc2-c2cc(Cl)c(O)cc2O)cc1 [Example 17] | < 50 µM |
| O=C(Nc1ccc(Cl)cc1)c1c[nH]nc1-c1cc(Cl)c(O)cc1O [Example 18] | > 50 µM |
| CC(=O)Nc1ccc(NC(=O)c2c[nH]nc2-c2cc(Cl)c(O)cc2O)cc1 [Example 19] | > 50 µM |
| COC(=O)c1ccc(NC(=O)c2c[nH]nc2-c2cc(Cl)c(O)cc2O)cc1 [Example 20] | < 50 µM |
| NC(=O)c1ccc(NC(=O)c2c[nH]nc2-c2cc(Cl)c(O)cc2O)cc1 [Example 22] | < 50 µM |

Further lines, results first:

| IC50 | SMILES |
| --- | --- |
| > 50 µM | O=C(NCc1ccccc1)c1c[nH]nc1-c1cc(Cl)c(O)cc1O [Example 23] |
| > 50 µM | O=C(O)Cc1ccc(NC(=O)c2c[nH]nc2-c2cc(Cl)c(O)cc2O)cc1 [Example 24] |
| > 50 µM | COc1ccc(N(C)C(=O)c2c[nH]nc2-c2cc(Cl)c(O)cc2O)cc1 [Example 25] |
| < 50 µM | O=C(O)c1ccc(CNC(=O)c2c[nH]nc2-c2cc(Cl)c(O)cc2O)cc1 [Example 26] |
| < 50 µM | Cc1ccc(CNC(=O)c2c[nH]nc2-c2cc(Cl)c(O)cc2O)cc1 [Example 27] |
| < 50 µM | COc1ccc(CNC(=O)c2c[nH]nc2-c2cc(Cl)c(O)cc2O)cc1 [Example 28] |
| < 50 µM | O=C(NCc1ccc(F)cc1)c1c[nH]nc1-c1cc(Cl)c(O)cc1O [Example 29] |
| < 50 µM | O=C(NCc1ccc(Cl)cc1)c1c[nH]nc1-c1cc(Cl)c(O)cc1O [Example 30] |
| < 50 µM | COc1cccc(CNC(=O)c2c[nH]nc2-c2cc(Cl)c(O)cc2O)c1 [Example 31] |
| < 50 µM | O=C(NCc1cccc(C(F)(F)F)c1)c1c[nH]nc1-c1cc(Cl)c(O)cc1O [Example 32] |
| < 50 µM | CS(=O)(=O)c1ccc(CNC(=O)c2c[nH]nc2-c2cc(Cl)c(O)cc2O)cc1 [Example 33] |
